Data set [1] concerns VCAM-1. Description: In Vitro VCAM-1 Assay (ELISA of VCAM-1 on TNF-α stimulated endothelial cells). The class given is cell-based. Conditions: Endothelial cell; primary human aortic (HAEC) or pulmonary (HPAEC) endothelial cells, TNF-α (1 ng/ml), approximately 16 hours. As to the method: Cell Culture and compound dosing: Cultured primary human aortic (HAEC) or pulmonary (HPAEC) endothelial cells were obtained from Clonetics, Inc., and were used below passage 9. Cells were seeded in 96 well plates such that they would reach 90-95% confluency by the following day. On the following day the cells were stimulated with TNF-α (1 ng/ml) in the presence or absence of compounds dissolved in DMSO such that the final concentration of DMSO is 0.25% or less. To establish a dose curve for each compound, four concentrations in 2- to 5-fold increments were used. Cells were exposed to TNF-α and compounds for approximately 16 hours. The next day the cells were examined under microscope to score for visual signs of toxicity or cell stress.
Following 16 hr exposure to TNF-α and compound the media was discarded and the cells were washed once with Hanks Balanced Salt Solution (HBSS)/Phosphate buffered saline (PBS) (1:1). Primary antibodies against VCAM-1 (0.25 μg/ml in HBSS/PBS+5% FBS) were added and incubated for 30-60 minutes at 37° C. Cells were washed with HBSS/PBS three times, and secondary antibody Horse Radish Peroxidase (HRP)-conjugated goat anti-mouse IgG (1:500 in HBSS/PBS+5% FBS) were added and incubated for 30 minutes at 37° C. Cells were washed with HBSS/PBS four time and TMB substrate were added and incubated at room temperature in the dark until there was adequate development of blue color. The length of time of incubation was typically 5-15 minutes. 2N sulfuric acid was added to stop the color development and the data was collected by reading the absorbance on a BioRad ELISA plate reader at OD 450 nm. The results are expressed as IC50 values (the concentration (micromolar) of compound required to inhibit 50% of the maximal response of the control sample stimulated by TNF-α only).

Results on 32 compounds are retold here after patent US20060063828A1 (priority 2004, published 2006).

SMILES strings stand for the structures.

In the case of `C=C(C(=O)c1ccc(NC(=O)c2ccno2)cc1)c1cc(-c2cccs2)ccc1OC` [Example 27, Isoxazole-5-carboxylic acid {4-[2-(2-methoxy-5-thien-2-yl-phenyl)-acryloyl]-phenyl}-amide], the melting point – broadly, the temperature of the solid-liquid transition – fell in the range of 132.5 to 133.5 °C. Besides, the half-maximal inhibitory concentration (IC50) (in general, the concentration that gives 50% inhibition) in data set [1] was < 1000 nM. With `C=C(C(=O)c1cccc(C(=O)O)c1)c1cc(-c2cccs2)ccc1OC` [Example 56, 3-[2-(2-Methoxy-5-thien-2-yl-phenyl)-acryloyl]-benzoic acid], the melting point fell in the range of 186 to 188 °C. The concentration for half-maximal inhibition (IC50) in data set [1] is < 3000 nM. In the case of `C=C(C(=O)c1c(OC)ccc(-c2cccs2)c1OC)c1ccccc1OC` [Example 31, 1-(2,6-Dimethoxy-3-thien-2-yl-phenyl)-2-(2-methoxy-phenyl)-propenone], the IC50 in data set [1] was < 1000 nM. `C=C(C(=O)c1ccc(Nc2cnccn2)cc1)c1cc(-c2cccs2)ccc1OC` [Example 25, 2-(2-Methoxy-5-thien-2-yl-phenyl)-1-[4-(pyrazin-2-ylamino)-phenyl]-propenone]: the melting point lay within 178 to 182 °C. In addition, the IC50 in data set [1] is < 1000 nM.

With `C=C(C(=O)c1cc(-c2cc3ccccc3s2)c(OC)cc1OC)c1ccc(F)cc1` [Example 47, 1-(5-Benzo[b]thien-2-yl-2,4-dimethoxy-phenyl)-2-(4-fluoro-phenyl)-propenone], the melting point was 150 to 152 °C. In addition, the IC50 in data set [1] is < 3000 nM. As for `C=C(C(=O)c1c(OC)ccc(-c2cccs2)c1OC)c1c(Cl)cccc1Cl` [Example 42, 2-(2,6-Dichloro-phenyl)-1-(2,6-dimethoxy-3-thien-2-yl-phenyl)-propenone], the melting point lay within 152 to 154 °C. Also, the IC50 in data set [1] was < 1000 nM. For `C=C(C(=O)c1cc(OC)c(OC)c(-c2cccs2)c1)c1ccc(C(=O)O)cc1` [Example 16, 4-[1-(3,4-Dimethoxy-5-thien-2-yl-benzoyl)-vinyl]-benzoic acid], in that order: 159 to 160 °C and < 1000 nM.

Consider `C=C(C(=O)c1ccc(C(=O)O)cc1)c1cc(-c2cccs2)ccc1OC(C)C` [Example 59, 4-[2-(2-Isopropoxy-5-thien-2-yl-phenyl)-acryloyl]-benzoic acid], for which the concentration for half-maximal inhibition (IC50) in data set [1] was < 1000 nM. For the compound `C=C(C(=O)c1cc(-c2cc3ccccc3s2)c(OC)cc1OC)c1ccc(C(=O)OC)cc1` [Example 12, 4-[1-(5-Benzo[b]thien-2-yl-2,4-dimethoxy-benzoyl)-vinyl]-benzoic acid methyl ester], the melting point was in the range of 184 to 186 °C. Also, in data set [1], the IC50 was < 3000 nM. Consider `C=C(C(=O)c1ccc(C(=O)O)cc1)c1ccc(OC)c(-c2cccs2)c1` [Example 1, 4-[2-(4-Methoxy-3-thien-2-yl-phenyl)-acryloyl]-benzoic acid], for which the melting point lay within 163 to 164 °C. In addition, the IC50 in data set [1] was < 3000 nM. `C=C(C(=O)c1ccc(C(=O)O)cc1)c1cc(-c2ccsc2)ccc1OC` [Example 62, 4-[2-(2-Methoxy-5-thien-3-yl-phenyl)-acryloyl]-benzoic acid] registered a melting point of 192 to 194 °C. For the same compound, in data set [1], the IC50 is < 1000 nM.

`C=C(C(=O)c1ccc(C(=O)O)cc1)c1cc(-c2cc3ccccc3s2)ccc1OC` [Example 5, 4-[2-(5-Benzo[b]thien-2-yl-2-methoxy-phenyl)-acryloyl]-benzoic acid]: the melting point is 240 to 242 °C (dec.). For the same compound, the IC50 in data set [1] was < 1000 nM.

Consider `C=C(C(=O)c1c(C)cccc1C)c1ccccc1-c1cccnc1OC` [Example 39, 1-(2,6-Dimethyl-phenyl)-2-[2-(2-methoxy-pyridin-3-yl)-phenyl]-propenone], for which, in data set [1], the IC50 is < 6000 nM. Turning to `C=C(C(=O)c1ccc(C(F)(F)F)cc1)c1cc(-c2cccs2)ccc1OC` [Example 58, 2-(2-Methoxy-5-thien-2-yl-phenyl)-1-(4-trifluoromethyl-phenyl)-propenone], the melting point lay within 131 to 133 °C. Also, the IC50 in data set [1] is < 3000 nM.

As for `C=C(C(=O)c1c(OC)ccc(-c2cccs2)c1OC)c1ccc(OC(C)(C)C(=O)O)cc1` [Example 35, 2-{4-[1-(2,6-Dimethoxy-3-thien-2-yl-benzoyl)-vinyl]-phenoxy}-2-methyl-propionic acid], the melting point was 138 °C (dec.). Besides, in data set [1], the half-inhibitory concentration (IC50) was < 3000 nM.

For `C=C(C(=O)c1ccc(C(=O)O)cc1)c1cc(-c2cccnc2)ccc1OC` [Example 4, 4-[2-(2-Methoxy-5-pyridin-3-yl-phenyl)-acryloyl]-benzoic acid], the melting point was 215 °C (dec.). Also, the IC50 in data set [1] was < 1000 nM.

Turning to `C=C(C(=O)c1c(C)cccc1Cl)c1ccc(C(=O)O)cc1-c1cccs1` [Example 32, 4-[1-(2-Chloro-6-methyl-benzoyl)-vinyl]-3-thien-2-yl-benzoic acid], the melting point is 88 °C (dec.). The IC50 in data set [1] was < 1000 nM. As to `C=C(C(=O)c1c(OC)ccc(-c2cccs2)c1OC)c1ccc(S(=O)(=O)N(C)CC(=O)O)cc1` [Example 63, ({4-[1-(2,6-Dimethoxy-3-thien-2-yl-benzoyl)-vinyl]-benzenesulfonyl}-methyl-amino)-acetic acid], the melting point is 164 to 166 °C. For the same compound, the IC50 in data set [1] is < 10000 nM. For `C=C(C(=O)c1c(OC)cccc1OC)c1cc(-c2cccs2)ccc1OC(C)(C)C(=O)O` [Example 66, 2-{2-[1-(2,6-Dimethoxy-benzoyl)-vinyl]-4-thien-2-yl-phenoxy}-2-methyl-propionic acid], in that order: 72 to 84 °C and < 3000 nM.

With `C=C(C(=O)c1ccc(C(=O)O)cc1)c1cc(OC)c(OC)c(-c2cccs2)c1` [Example 49, 4-[2-(3,4-Dimethoxy-5-thien-2-yl-phenyl)-acryloyl]-benzoic acid], the melting point lay within 156 to 157 °C. Moreover, in data set [1], the IC50 was < 6000 nM.

With `C=C(C(=O)c1cc(-c2cc3ccccc3s2)c(OC)cc1OC)c1ccc(OC)cc1` [Example 46, 1-(5-Benzo[b]thien-2-yl-2,4-dimethoxy-phenyl)-2-(4-methoxy-phenyl)-propenone], the melting point was in the range of 166 to 168 °C. The IC50 in data set [1] is < 3000 nM. `C=C(C(=O)c1ccc(NS(C)(=O)=O)cc1)c1cc(-c2cccs2)ccc1OC` [Example 19, N-{4-[2-(2-Methoxy-5-thien-2-yl-phenyl)-acryloyl]-phenyl}-methane-sulfonamide]: the melting point lay within 197 to 198 °C. The IC50 in data set [1] was < 1000 nM. For `C=C(C(=O)c1ccc(Nc2ncccc2C(=O)O)cc1)c1cc(-c2cccs2)ccc1OC` [Example 24, 2-{4-[2-(2-Methoxy-5-thien-2-yl-phenyl)-acryloyl]-phenylamino}-nicotinic acid], in that order: 234 °C (dec.) and < 1000 nM. `C=C(C(=O)c1ccc(C(=O)NC(CO)(CO)CO)cc1)c1cc(-c2cccs2)ccc1OC` [Example 10, N-(2-Hydroxy-1,1-bis-hydroxymethyl-ethyl)-4-[2-(2-methoxy-5-thien-2-yl-phenyl)-acryloyl]-benzamide]: the melting point lay within 144 to 146 °C. Besides, the IC50 in data set [1] was < 1000 nM. Take `C=C(C(=O)c1c(OC)ccc(-c2cccs2)c1OC)c1cccc(OC(C)(C)C(=O)O)c1` [Example 44, 2-{3-[1-(2,6-Dimethoxy-3-thien-2-yl-benzoyl)-vinyl]-phenoxy}-2-methyl-propionic acid]: the melting point lay within 79 to 94 °C. Moreover, in data set [1], the IC50 was < 3000 nM. On to `C=C(C(=O)c1c(C)cccc1C)c1ccccc1-c1cccs1` [Example 38, 1-(2,6-Dimethyl-phenyl)-2-(2-thien-2-yl-phenyl)-propenone], for which the IC50 in data set [1] was < 10000 nM.

With `C=C(C(=O)c1c(Cl)cccc1Cl)c1cc(-c2cccs2)ccc1OC` [Example 7, 1-(2,6-Dichloro-phenyl)-2-(2-methoxy-5-thien-2-yl-phenyl)-propenone], in data set [1], the IC50 was < 1000 nM.

Consider `C=C(C(=O)c1ccc(O)cc1)c1cc(-c2cccs2)ccc1OC` [Example 17, 1-(4-Hydroxy-phenyl)-2-(2-methoxy-5-thien-2-yl-phenyl)-propenone], for which the IC50 in data set [1] is < 1000 nM. In the case of `C=C(C(=O)c1c(C)cccc1C)c1cc(-c2cccs2)ccc1OC` [Example 29, 1-(2,6-Dimethyl-phenyl)-2-(2-methoxy-5-thien-2-yl-phenyl)-propenone], the concentration for half-maximal inhibition (IC50) in data set [1] was < 1000 nM.

In the case of `C=C(C(=O)c1ccc(N(C)S(C)(=O)=O)cc1)c1cc(-c2cccs2)ccc1OC` [Example 20, N-{4-[2-(2-Methoxy-5-thien-2-yl-phenyl)-acryloyl]-phenyl}-N-methyl-methanesulfonamide], in data set [1], the IC50 is < 1000 nM. Same read-out and setting: the figure for `C=C(C(=O)c1cc(-c2cccs2)ccc1OC)c1ccc(C(=O)O)cc1` [Example 54, 4-[1-(2-Methoxy-5-thien-2-yl-benzoyl)-vinyl]-benzoic acid] is < 1000 nM; for `C=C(C(=O)c1cc(-c2cccs2)ccc1OC)c1ccc([N+](=O)[O-])cc1` [Example 52, 1-(2-Methoxy-5-thien-2-yl-phenyl)-2-(4-nitro-phenyl)-propenone] it is < 3000 nM.
